Data published in the RepoRT retention time repository (doi:10.1016/j.aca.2019.02.001).

Assay: RP, Agilent ZORBAX Eclipse XDB-C18, 100 × 2.1 mm, 1.8 µm, 50 °C, 0.4 mL/min, estimated dead time 0.55 min; A: water + 0.1% formic acid; B: methanol; gradient (min/%B) 0/30 2/30 5/52 15/65 20/78 22.5/78 29/90 38/100
Conditions: stereoisomer not certain

Row | Compound | LC retention time [min]
1 | CC(C)C(N)C(=O)O (configuration not stated) | 9.34
2 | O=C(O)C1CCCN1 (configuration not stated) | 8.37
3 | CC(=O)O | 8.11
4 | CCCCCCCCC=CCCCCCCCCCCCCCC(=O)O | 34.2
5 | Nc1c(O)cccc1C(=O)O | 15.7
6 | NCCc1c[nH]c2ccccc12 | 13.4
7 | CCCCCCCCCCCCCCCCCCCCCC(=O)O | 34
8 | CCC=CCC=CCC=CCC=CCC=CCCCC(=O)O | 27.5
9 | NC(N)=NCCCC(N)C(=O)O (configuration not stated) | 3.02
10 | CC(C)CC(N)C(=O)O (configuration not stated) | 11.7
11 | CCCCCCCCCCCCCCCCCC(=O)O | 31.5
12 | CC(CCC(=O)O)C1CCC2C3C(O)CC4CC(O)CCC4(C)C3CC(O)C12C (configuration not stated) | 24.2
13 | CCCCCCCCC(=O)O | 23
14 | CCCCC(=O)O | 14.5
15 | CCC(C)CC(=O)O (configuration not stated) | 16.7
16 | CC(=O)NCCc1c[nH]c2ccc(O)cc12 | 12.2
17 | COc1ccc2[nH]cc(CC(=O)O)c2c1 | 12.1
18 | O=C(O)C(O)Cc1c[nH]c2ccccc12 (configuration not stated) | 12.1
19 | NC(CS)C(=O)O (configuration not stated) | 6.31
20 | CC(CCC(=O)O)C1CCC2C3CCC4CC(O)CCC4(C)C3CCC12C (configuration not stated) | 26.2
21 | CCC=CCC=CCC=CCCCCCCCC(=O)O | 27.5
22 | CC(C)C(=O)O | 11.4
23 | CCCCCCCCCCCC(=O)O | 25.6
24 | NC(=O)CCC(N)C(=O)O (configuration not stated) | 4.45
25 | CCCCCCCC(=O)O | 21.4
26 | NCCCNCCCCNCCCN | 6.5

Row | Compound | LC retention time [min]
27 | CCCCCCCCCCCCC(=O)O | 26.4
28 | CCCCCCCCCC(=O)O | 24.3
29 | Nc1c(O)cccc1C(=O)CC(N)C(=O)O (configuration not stated) | 21
30 | O=C(O)C(=O)Cc1c[nH]c2ccccc12 | 15.5
31 | CCCCCCCCC=CCCCCCCCC(=O)O | 30.5
32 | CCCCCCCCCCCCCCCC(=O)O | 29.8
33 | CC(O)C(N)C(=O)O (configuration not stated) | 6.29
34 | CCCCCCC=CCCCCCCCC(=O)O | 27.9
35 | CCCCCC=CCC=CCCCCCCCC(=O)O | 28.8
36 | CCCCCC=CCC=CCC=CCC=CCCCC(=O)O | 28.7
37 | O=C(O)c1cc(=O)c2ccccc2[nH]1 | 17.4
38 | NCC(=O)O | 5.85
39 | NC(Cc1cnc[nH]1)C(=O)O (configuration not stated) | 2.35
40 | NCCCCN | 17.6
41 | COc1cc2c(CCNC(C)=O)c[nH]c2cc1O | 11.9
42 | CC(CCC(=O)O)C1CCC2C3CCC4CC(O)CCC4(C)C3CC(O)C12C (configuration not stated) | 25.2
43 | CC(CCC(=O)O)C1CCC2C3C(O)CC4CC(O)CCC4(C)C3CCC12C (configuration not stated) | 24.9
44 | CC(N)C(=O)O (configuration not stated) | 6.78
45 | Nc1ccccc1C(=O)CC(N)C(=O)O (configuration not stated) | 9.21
46 | NCCCCC(N)C(=O)O (configuration not stated) | 16.2
47 | CCCCCCCCC=CCCCCCCCCCCCC(=O)O | 32.9
48 | CCC(C)C(N)C(=O)O (configuration not stated) | 11.4
49 | CCCCCCCCCCCCCCC(=O)O | 28.4
50 | NCCO | 5.87
51 | CCC(=O)O | 9.67
52 | CCCCCCCCC=CCCCCCCCCCC(=O)O | 31.8

Row | Compound | LC retention time [min]
53 | NC(Cc1c[nH]c2ccccc12)C(=O)O (configuration not stated) | 9.89
54 | CCCCCC(C)C(=O)O (configuration not stated) | 20.6
55 | CCCCCCC(=O)O | 19.7
56 | CC(C)CCC(=O)O | 17.1
57 | NC(Cc1ccccc1)C(=O)O (configuration not stated) | 11.8
58 | O=C(O)CCCC(=O)C(=O)O | 7.25
59 | CCCCCC(=O)O | 17.4
60 | NC(CO)C(=O)O (configuration not stated) | 5.14
61 | NCCCCNCCCN | 9.8
62 | CCC=CCC=CCC=CCC=CCC=CCC=CCCC(=O)O | 28.5
63 | CCCCCCCCCCCCCC(=O)O | 27.3
64 | O=C(O)Cc1c[nH]c2ccc(O)cc12 | 12.1
65 | CSCCC(N)C(=O)O (configuration not stated) | 9.06
66 | O=C(O)c1cc(=O)c2cccc(O)c2[nH]1 | 9.89
67 | CCCCC(CC)C(=O)O (configuration not stated) | 20.2
68 | CCCCC(C)C(=O)O (configuration not stated) | 18.9
69 | O=C(O)c1cccnc1C(=O)O | 8.32
70 | O=C(O)Cc1c[nH]c2ccccc12 | 13.4
71 | CCCCC(C)CCC(=O)O (configuration not stated) | 22.5
72 | NC(=O)CC(N)C(=O)O (configuration not stated) | 3.75
73 | CC(C)CC(=O)O | 14
74 | CCCCCCCCCCCCCCCCCCC(=O)O | 32.1
75 | CCCCCCCCCCCCCCCCCCCCC(=O)O | 33.4
76 | NC(Cc1ccc(O)cc1)C(=O)O (configuration not stated) | 20.5
77 | CCCC(=O)O | 11.8
